Source: article PMC10611578, “Aβ1-6A2V(D) peptide, effective on Aβ aggregation, inhibits tau misfolding and protects the brain after traumatic brain injury” (Molecular Psychiatry, 2023)
Square brackets hold non-standard residues; d marks the D form. Peptide text beside a SMILES is read from it.

Legend:
[1] = system: tau (P301L mouse brain homogenate), proteinase K; test: Proteolysis of tau in P301L brain homogenate; format: biochemical, human tau with P301L mutation, JNPL3 mice; details: 50 µM Aβ1-6A2V-TAT(D), P301L brain homogenate 30 µg protein/100 µL, 30 min at 37 °C with proteinase K (2.5–10 µg/ml)
[2] = system: misfolded toxic tau in P301L mouse brain homogenate; C. elegans; format: in vivo, Caenorhabditis elegans (Bristol N2)
Description: Bristol N2 nematodes were obtained from the Caenorhabditis elegans Genetic Center (CGC, University of Minnesota, Minneapolis, MN, USA) and propagated at 20 °C on solid Nematode Growth Medium (NGM) seeded with E. coli OP50 (CGC) for food. We used the bleaching technique to prepare age-synchronized animals. C. elegans at the first larval stage were then transferred to fresh NGM plates and grown at 20 °C. At the L3-L4 larval stage, nematodes were collected with M9 buffer, centrifuged, and washed twice with 10 mM PBS (pH 7.4) to eliminate bacteria. Worms were incubated for 2 h at room temperature with orbital shaking, in the absence of E. coli, with brain homogenates from Non-tg and P301L mice (30 µg protein/100 worms/100 µL 10 mM PBS, pH 7.4) in the presence or absence of 50 µM Aβ1-6A2V(D), 50 µM TAT, or 0.1–200 µM Aβ1-6A2V-TAT(D). Control worms were treated with 10 mM PBS, pH 7.4 (Vehicle), 50 µM Aβ1-6A2V (D), 50 µM Aβ1-6A2V-TAT(D) or 50 µM TAT (100 worms/100 µL). Pericontusional tissue homogenates from young WT TBI mice 12 months post-injury or aged-matched sham mice were administered to worms (30 µg protein/100 worms/100 µL) in the absence or presence of 50 µM Aβ1-6A2V-TAT(D). Pericontusional tissue homogenates from 3xTg-AD TBI mice, as well as pericontusional tissues from aged WT TBI, previously treated or not with intranasal 50 mg/kg b.w. […] Homogenates from naive or sham mice were administered to worms as controls for 3xTg-AD and aged WT TBI mice, respectively ((30 µg protein/100 worms/100 µL 10 mM PBS, pH 7.4). As an additional negative control, 10 mM PBS, pH 7.4 (100 worms/100 µL) was administered to nematodes. Worms were then plated onto NGM plates seeded with OP50 E. coli, grown at 20 °C, and transferred every day to new NGM plates seeded with E. coli to avoid overlapping generations. The locomotor activity of nematodes was scored 7 days after the treatment in blind conditions and expressed as the body bends/min [26]. […]

C. elegans = details: C. elegans; ref [18]; cited from earlier work
[3] = system: insoluble tau (P301L mouse brain homogenate); test: Detergent insolubility assay of tau in P301L brain lysate; format: biochemical, human tau with P301L mutation, JNPL3 mice; details: 50 µM, 2 h at 25 °C, PBS pH 7.4; mean ± SD, N = 4-5
[4] = system: abnormal tau in WT TBI mouse brain homogenate; C. elegans; test: Locomotor activity of C. elegans exposed to brain homogenate of WT TBI mice 12 months post-injury; format: in vivo, Caenorhabditis elegans (Bristol N2); details: 50 µM peptide, pericontusional tissue 12 months post-injury, 30 µg protein/100 worms/100 µL, 7 days after treatment; N = 30
Description: Bristol N2 nematodes were obtained from the Caenorhabditis elegans Genetic Center (CGC, University of Minnesota, Minneapolis, MN, USA) and propagated at 20 °C on solid Nematode Growth Medium (NGM) seeded with E. coli OP50 (CGC) for food. We used the bleaching technique to prepare age-synchronized animals. C. elegans at the first larval stage were then transferred to fresh NGM plates and grown at 20 °C. At the L3-L4 larval stage, nematodes were collected with M9 buffer, centrifuged, and washed twice with 10 mM PBS (pH 7.4) to eliminate bacteria. […] Homogenates from naive or sham mice were administered to worms as controls for 3xTg-AD and aged WT TBI mice, respectively ((30 µg protein/100 worms/100 µL 10 mM PBS, pH 7.4). As an additional negative control, 10 mM PBS, pH 7.4 (100 worms/100 µL) was administered to nematodes. Worms were then plated onto NGM plates seeded with OP50 E. coli, grown at 20 °C, and transferred every day to new NGM plates seeded with E. coli to avoid overlapping generations. The locomotor activity of nematodes was scored 7 days after the treatment in blind conditions and expressed as the body bends/min [26]. […]

CC(C)[C@@H](NC(=O)[C@H](N)CC(=O)O)C(=O)N[C@H](CCC(=O)O)C(=O)N[C@H](Cc1ccccc1)C(=O)N[C@H](CCCNC(=N)N)C(=O)N[C@H](Cc1c[nH]cn1)C(=O)NCC(=O)NCC(=O)NCC(=O)NCC(=O)NCC(=O)N[C@H](CCCNC(=N)N)C(=O)N[C@H](CCCCN)C(=O)N[C@H](CCCCN)C(=O)N[C@H](CCCNC(=N)N)C(=O)N[C@H](CCCNC(=N)N)C(=O)N[C@H](CCC(N)=O)C(=O)N[C@H](CCCNC(=N)N)C(=O)N[C@H](CCCNC(=N)N)C(=O)N[C@H](CCCNC(=N)N)C(=O)O [Aβ1-6A2V-TAT(D)] (H-[dD][dV][dE][dF][dR][dH]GGGGG[dR][dK][dK][dR][dR][dQ][dR][dR][dR]-OH; N-terminus assumed)
Susceptibility of tau to degradation by proteases [1]: increased the susceptibility of tau to degradation by proteases, and this was particularly evident in the presence of proteinase K
Dose dependence of the protection of worms from P301L brain homogenate ([2]; 0-200 µM peptide, body bends 7 days after treatment): The effect was dose-dependent
Protection of worms from toxicity of P301L brain homogenate ([2]; 30 µg protein/100 worms/100 µL, body bends 7 days after treatment, 50 µM peptide): protected worms from the toxicity caused by P301L brain homogenates
IC50 ([2]; 0.1–200 µM peptide, 30 µg protein/100 worms/100 µL, 2 h exposure at room temperature, PBS pH 7.4, body bends 7 days after treatment, three independent experiments (N = 30), read-out: IC50 for protection of worms from P301L brain homogenate toxicity): 25.6 µM
Passage through the worm's membrane (C. elegans): only in the presence of the TAT sequence, Aβ1-6A2V(D) can pass through the worm’s membrane
Fraction of insoluble tau in P301L brain homogenate [3]: without affecting the fraction of insoluble tau
Reversal of toxic effect of WT TBI brain homogenate in C. elegans [4]: completely reverted
